Measurements published in article PMC3618987, “From BACE1 Inhibitor to Multifunctionality of Tryptoline and Tryptamine Triazole Derivatives for Alzheimer’s Disease” (Molecules, 2012).

Tests used:
[1] = biological target: T1, β-Secretase (BACE1) (Homo sapiens, UniProt P56817); assay: β-Secretase inhibition assay (fluorogenic substrate IV); assay type: biochemical; conditions: read-out: BACE1 % Inhibition (at 25 µM) (±SEM)
T1 construct: purchased Sino Biological
Description: β-Secretase enzyme was reconstituted with 50 mM Tris (pH 7.5), 10% glycerol to yield concentration of 0.5 unit/µL. The enzyme stock solution was diluted with 100 mM sodium acetate buffer (pH 4.5) to 0.01 unit/µL. Thirty microliters of enzyme solution were added to each well that contained 20 µL of 5% DMSO of test compound. Then, fifty microliters of 50 µM β-secretase substrate IV from Calbiochem were added to the reaction plate. […] The assays were run in triplicate.

[2] = Fe (II) chelation capacity assay (ferrozine)
Description: An aqueous solution of 0.2 mM ferrous sulphate was prepared. Fifty microliters of this solution was added to 96 well plate, then 40 µL of 500 µM of test compounds in 50% DMSO were added to each well followed by DI water to adjust the volume to 150 µL. The mixtures were incubated at room temperature for 10 min. After incubation, 50 µL of 1 mM ferrozine (Sigma) was added to the reaction mixture. The absorbance was measured at 562 nm by using infinite 200 pro^TM, Tecan. EDTA was used as a positive control. Chelation capacity of each compounds were calculated. Compounds having chelating capacity over than 50% were evaluated for stoichiometric ratio of compound: metal.

[3] = biological target: T2, amyloid-β (1-42) peptide (Homo sapiens, UniProt P05067); assay: Amyloid β aggregation assay (ThT fluorescence); assay type: biochemical; conditions: Aβ(1-42), 48 h, read-out: Anti-Aβ aggregation % Inhibition (at 100 µM) (±SEM)
T2 construct: Stock solution of amyloid-β (1-42) peptide (Anaspec; 1384 µM in 1% NH4OH); purchased Anaspec
T2 sequence (P05067 672-713 limits assumed): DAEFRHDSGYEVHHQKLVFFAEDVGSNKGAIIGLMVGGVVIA
Description: Nine microliters amyloid-β solution was added to a greiner transparent 96 well plate. One microliter of each test compounds (1,000 µM in DMSO) were added to each well and mixed gently by tapping. The final concentrations of each compound were 100 µM in 10% DMSO. The reaction plate was incubated in dark at 37 °C for 48 h. After incubation, 200 µL of 5 µM ThT (Sigma) in 50 mM Tris buffer (pH 7.4) was added to each well. The fluorescence was measured at Ex = 446 nm and Em = 490 nm by using SpectraMax Gemini EM^TM [30]. The assays were run in triplicate.

[4] = Free radical scavenging assay (DPPH)
Description: The test samples were prepared in 50% DMSO at 500 µM. Seventy microliters of DPPH solution (500 µM in methanol) was added to 96 well plate. The assay mixture was adjusted to 80 µL volume by methanol. After adjusting the volume, 20 µL of test compounds was added to each well. The reaction plate was incubated at room temperature in dark for 30 min. The absorbance was measured at 517 nm by using infinite 200 pro^TM, Tecan. Ascorbic acid was used as a positive control. Percent inhibition was calculated and compounds showing activity were evaluated for the IC50 values.

[5] = biological target: T2, amyloid-β (1-42) peptide; assay: Amyloid β aggregation assay (ThT fluorescence); assay type: biochemical; conditions: Aβ(1-42), read-out: Anti-Aβ aggregation IC50

T1 sequence (P56817 46-501): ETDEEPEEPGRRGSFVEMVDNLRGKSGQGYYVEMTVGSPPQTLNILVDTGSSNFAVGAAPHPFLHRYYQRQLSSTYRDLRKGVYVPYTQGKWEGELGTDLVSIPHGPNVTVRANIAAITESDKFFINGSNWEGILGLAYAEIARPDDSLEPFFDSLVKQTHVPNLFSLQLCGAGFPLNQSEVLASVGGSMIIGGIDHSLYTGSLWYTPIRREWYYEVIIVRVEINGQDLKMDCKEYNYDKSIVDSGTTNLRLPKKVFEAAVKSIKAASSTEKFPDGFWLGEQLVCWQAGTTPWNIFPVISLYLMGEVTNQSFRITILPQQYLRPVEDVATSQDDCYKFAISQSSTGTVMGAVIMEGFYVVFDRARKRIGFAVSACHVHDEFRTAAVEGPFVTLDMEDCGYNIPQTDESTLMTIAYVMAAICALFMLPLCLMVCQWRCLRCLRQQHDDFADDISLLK

Row | Structure (SMILES) | inhibition at 25 µM [1] | Fe chelation % Capacity (at 100 µM) (±SEM) [2] | melting point | inhibition at 100 µM [3] | DPPH % Inhibition (at 100 µM) (±SEM) [4] | IC50 [5] | IC50 [4]
1 | N[C@@H](Cc1c[nH]c2ccccc12)Cn1cc(CNC(=O)c2cc(O)cc(O)c2)nn1 [Compound 12f, (S)-N-((1-(2-Amino-3-(1H-indol-3-yl)propyl)-1H-1,2,3-triazol-4-yl)methyl)-3,5-dihydroxybenzamide] | 16.6% | 13.06 (±0.16) % | 68 to 70 °C | 3.8% | 1.32 (±0.78) % | – | –
2 | COc1cc(/C=C/C(=O)NCc2cn(C[C@@H](N)Cc3c[nH]c4ccccc34)nn2)ccc1O [Compound 12g, (S,E)-N-((1-(2-Amino-3-(1H-indol-3-yl)propyl)-1H-1,2,3-triazol-4-yl)methyl)-3-(4-hydroxy-3-methoxyphenyl)acrylamide] | 16.2% | – | 118 to 119 °C | 46.1% | 40.79 (±0.31) % | 110 µM | 130 µM
